One compound from patent US8367647B2, “Treatment of meconium aspiration syndrome with estrogens” (Pantarhei Bioscience B.V., priority 2007, dated 2013) can be followed below.

The test relates to newborn piglets. Briefly: Meconium aspiration model: newborn piglets given human meconium by deep intratracheal instillation, monitored 7 days. Format: in vivo. The following applies: 3 ml/kg of 20% human meconium intratracheal, daily oral dosage of 0.7 mg/kg started within one hour after birth, versus placebo. Here is the method: Immediately after birth, twelve newborn piglets are given 3 ml/kg of a 20% solution of human meconium by deep intratracheal instillation. Next, the piglets are randomly assigned to two groups of each six animals. Within one hour after birth, one group is treated with a daily oral dosage of 0.7 mg/kg estetrol whilst the control group is treated with placebo. During the next 7 days the condition of the piglets belonging to both groups are monitored. […] Example 1 was repeated, except that this time one group was treated with a daily oral dosage of 30 μg/kg estradiol instead of estetrol.

Take `C[C@]12CC[C@@H]3c4ccc(O)cc4CC[C@H]3[C@@H]1[C@@H](O)[C@@H](O)[C@@H]2O` [estetrol]: the “incidence of severe complications of MAS versus control group” value is listed as “substantially lower”.
